# Reference: patent US20130252945A1, “AMORPHOUS BIOINORGANIC IONIC LIQUID COMPOSITIONS COMPRISING PHARMACEUTICALS” (priority 2012, published 2013)
# Values joined by “and” are separate entries in the source; they are usually repeats but may differ in a detail not shown here. Equal entries are not always repeated. Structures can show the parent of a compound that is named as a salt.
# Columns and labels:
# [1] = Decomposition temperature by TGA; assay type: physicochemical; conditions: for Tdec (decomposition temperature): TGA under N2, 20° C. per minute
# Description: (§1) Melting points of all purchased materials were determined in a capillary tube using a MeI-Temp apparatus (Barnstead/Thermo Scientific). NMR data sets were collected on a 300 MHz Bruker instrument using sample concentrations of 50 mM. Infrared spectra were measured using an Avatar 360 FT-IR ESP (ThermoElectron-Nicolet, Waltham, Mass.) equipped with a Smart DuraSamplIR horizontal attenuated total reflectance (HATR) accessory. Raman spectra were measured using a Thermo-Nicolet 470 FTIR with Nd:YAG laser excitation and HgCdTe detector. Viscosity was measured on 1 mL samples with a Viscolab 3000 viscometer (Cambridge Viscosity, Medford, Mass.). Samples were heated to 90° C., except when otherwise specified, and viscosity was recorded in 2 degree increments between 50 and 90° C. with 8 min equilibration at each temperature. Thermal characterization was carried out using a Q100 DSC and a Q500 TGA (both from TA Instruments, New Castle, Del.). DSC was performed using a 5-10 mg sample in a 40 μL aluminum crucible sealed in the glovebox. A temperature range from −60 to 150° C. was scanned twice, at ramp rates of 5° C./min and 10° C./min. TGA was performed under N2 atmosphere over a temperature range from 25-800° C. with a ramp rate of 20° C. per minute and a sample size of 10 mg.
# [2] = Storage under Ar, observation for crystalline domains over 6 months; assay type: physicochemical; conditions: stored under Ar, observed over 6 months
# [3] = tested on: Pseudomonas aeruginosa biofilms (clinical isolate from sputum); assay: Challenge of established biofilms (72 h) with test compound, CFU count; assay type: cell-based; conditions: 6 h at 37° C.
# [4] = Solubility in solvents (soluble / insoluble); conditions: organic solvent or mixture
# E. coli culture = assay: Biofilm growth on IL-coated culture plates; assay type: cell-based; conditions: 100 μL IL per well, counted after 72 h, limit of detection
# Description: (§2) A second example of clear, colorless antimicrobial films formed by compositions described herein was shown with an assay that involved coating culture plates with IL and observing the biofilm growth on the coated surface. […] Aliquots of 100 μL of either a Staphylococcus aureus culture, an E. coli culture, or a Pseudomonas aeruginosa culture were added to each coated well, the plate was fed with fresh media every 24 h, and cells were counted after 72 h, as described above. The number of cells in the treated wells was below the limit of detection of the assay of 1000 cfu/mL, as compared with normal cell counts for the LB control wells, indicating high antimicrobial efficacy of the IL coating. Because bacteria colonize a surface prior to barnacles and other organisms, proof of antibacterial effects is key to showing anti-biofouling potential in aquatic environments.
# [5] = tested on: Pseudomonas aeruginosa culture; assay: Biofilm growth on IL-coated culture plates; assay type: cell-based; conditions: 100 μL IL per well, counted after 72 h, limit of detection
# Description: as §2
# [6] = tested on: Staphylococcus aureus culture; assay: Biofilm growth on IL-coated culture plates; assay type: cell-based; conditions: 100 μL IL per well, counted after 72 h, limit of detection
# Description: as §2
# [7] = assay type: physicochemical; conditions: 3 h incubation at a constant 120° C.
# [8] = Solubility at 1 mM in unbuffered water by eye and UV-Vis after filtration; assay type: physicochemical; conditions: unbuffered water (pH 6.5), by eye
# Description: Solubility of phenoxybenzamine hydrochloride and phenoxybenzamine-HCl—(ZnCl2)2 at 1 mM in unbuffered water (pH 6.5) was evaluated by eye and by UV-Vis spectroscopy after filtration through a 0.45 μm syringe filter.
# [9] = Shelf life by model-free isoconversional kinetic analysis of TGA data; assay type: physicochemical
# Description: Zinc(II) chloride (273 mg, 2 mmol) was added to a scintillation vial that had been heated, then cooled under vacuum and charged with dry argon. Phenoxybenzamine hydrochloride (340.3 mg, 1 mmol) was added to the vial with a stir bar and the mixture was degassed with stirring at 60° C. The vial was filled with argon, sealed with a cap, and stirred for 24 h at 80° C. to produce a clear, colorless glass. […] NMR spectra for ^1H and ^13C were obtained in d6-acetone. […] Spectra of phenoxybenzamine-HCl were performed with 0, 0.25, 0.5, 1.0, 1.5, 2.0, and 5.0 molar equivalents of ZnCl2 to observe this effect. Thermal decomposition after a 3 h incubation of the IL at a constant 120° C. was 2.7% of the starting mass. In contrast, the phenoxybenzamine hydrochloride starting material loses 38% of its mass after a similar incubation. The IL was soluble (>1 mM) in acetone, water and phosphate buffered to pH 6.0. The IL was insoluble (<1 mM) in toluene and tetrahydrofuran. […] The manufacturer's shelf life for 10 mg phenoxybenzamine hydrochloride tablets is 2 years, or 730 days, and the calculated value for solid phenoxybenzamine hydrochloride (5% decay at 20° C.) was 750 days (2.05 years), indicating good agreement of the calculation with actual shelf life. […]
# [10] = Viscosity (Viscolab 3000 viscometer); assay type: physicochemical; conditions: at 90° C.
# Description: as §1
molecule,measurement,setting,value
CNC(=C[N+](=O)[O-])NCCSCc1ccc(CN(C)C)o1.Cl.[Cl][Zn][Cl].[Cl][Zn][Cl],Tdec (decomposition temperature),[1],230.9 °C
same,appearance of crystalline domains on storage,[2],no crystalline domains appeared
"CCCC[N+]1(C)CCCC1.O=S(=O)([N-]S(=O)(=O)C(F)(F)F)C(F)(F)F [BMP-NTf2, 1-butyl-1-methypyrrolidinium bistriflimide]",cell count of biofilm after challenge,[3]; neat,2×10^5
CN1[C@@H]2CC[C@H]1CC(OC(=O)C(O)c1ccccc1)C2 (stereo partly drawn) [Homatropine-HCl—(ZnCl2)2],ΔTdec (increase in decomposition temperature relative to HCl starting material),[1]; TGA,+7.8 °C
same,appearance of crystalline domains on storage,[2],no crystalline domains appeared
same,solubility,[4]; dimethylsulfoxide,> 1000 µM
same,solubility,[4]; toluene,< 1000 µM
CN(C)CCCN1c2ccccc2CCc2ccccc21.Cl.[Cl][Zn][Cl].[Cl][Zn][Cl] [Imipramine-HCl—(ZnCl2)2],appearance of crystalline domains on storage,[2],no crystalline domains appeared
[Cl-].[Na+] [NaCl],cell count of biofilm after challenge,"[3]; 5 M in LB, control for ionic strength",1×10^6 cells
"[Cl-].[Cl-].[Zn+2] [ZnCl2, Zinc(II) chloride]",cell count of biofilm after challenge,[3]; 1.8 M in LB,4×10^5
"CC(C)(C)CC(C)(C)c1ccc(OCCOCC[N+](C)(C)Cc2ccccc2)cc1 [benzethonium chloride, Benzethonium chloride]",viable dispersed cell count (conservative estimate),"[3]; 78 mM in LB, formed precipitate",~5×10^4 cfu/mL
"CC(C)(C)CC(C)(C)c1ccc(OCCOCC[N+](C)(C)Cc2ccccc2)cc1 [benzethonium-Cl—(ZnCl2)2, Benzethonium-Cl—(ZnCl2)2]",number of cells in treated (IL-coated) wells,E. coli culture,< 1000 cfu/mL
same,number of cells in treated (IL-coated) wells,[5],< 1000 cfu/mL
same,number of cells in treated (IL-coated) wells,[6],< 1000 cfu/mL
"CC(COc1ccccc1)N(CCCl)Cc1ccccc1 (stereo not drawn) [phenoxybenzamine hydrochloride, Phenoxybenzamine hydrochloride, reference compound]",thermal decomposition (loss of starting mass),[7],38%
"CC(COc1ccccc1)N(CCCl)Cc1ccccc1.Cl.[Cl][Zn][Cl].[Cl][Zn][Cl] (stereo not drawn) [phenoxybenzamine-HCl—(ZnCl2)2, Phenoxybenzamine-HCl—(ZnCl2)2]",solubility in unbuffered water (appeared to completely dissolve),[8],≥ 1 mM and ≥ 0.34 mg/mL
same,thermal decomposition (loss of starting mass),[7],2.7%
same,improvement of shelf life over solid phenoxybenzamine hydrochloride,"[9]; at 20° C., 5% decomposition",7.7 fold
same,improvement of shelf life over standard formulation in syrup and propylene glycol,[9]; compared with 4-day refrigerator shelf life,1500 fold
same,appearance of crystalline domains on storage,[2],no crystalline domains appeared
Ethambutol-(HCl)2—(ZnCl2)2,appearance of crystalline domains on storage,[2],no crystalline domains appeared
same,Viscosity,[10],17350 cP
Procainamide-HCl—(ZnCl2)2,Tdec (decomposition temperature),[1],291.0 °C
same,appearance of crystalline domains on storage,[2],no crystalline domains appeared
